Data reported in patent US20070003987A1, “Screening method for substance binding to merozoite surface protein-1/42” (priority 2003, published 2007).

How the values were obtained:
[1] = test system: P. falciparum (FCB-1); assay: growth inhibition assay by [3H] hypoxanthine uptake; format: cell-based, Plasmodium falciparum; details: 200 μM
Experimental: Asexual blood stages of P. falciparum (FCB-1) were maintained at 37° C. in RPMI 1640/Albumax medium (Gibco) supplemented with 2 mM L-glutamine as previously described (Blackman, 1994 Methods Cell Biol. 45, 213-220). Cultures were gassed with 7% CO2, 5% O2 and 88% N2 and maintained by routine passage in fresh human erythrocytes. Parasites were synchronised by Percoll and sorbitol treatment (Holder & Freeman, 1982 J. Exp. Med. 156, 1528-1538); schizonts were purified by centrifugation over Percoll and then returned to culture in the presence of fresh erythrocytes. After 4 h, during which time released merozoites invaded erythrocytes, the cells were treated with 5% sorbitol for 10 min to lyse the residual schizonts, before returning the parasites to culture.
Suramin and NTS were also assayed for P. falciparum growth inhibition using [^3H] hypoxanthine uptake (generally as described by Desjardins et al, 1979 Antimicrob. Agents Chemother. 16, 710-718). Serial dilutions of the compounds in 96-well plates were incubated at 37° C. with purified mature schizonts at a final parasitaemia of ^˜0.5% and a haematrocrit of ^˜2% in triplicate cultures. […] The filters were wetted with scintillation cocktail and the bound radioactivity counted in a β-counter. […] The amount of radioactivity in each sample was expressed as a percentage of activity in the control wells containing no compound. […]

[2] = target: T1, MSP142 (Plasmodium falciparum, UniProt Q8I0U8); assay: inhibition of suramin binding (fluorescence, 384-well plate); details: 10 μM analogue, 2 μM suramin, 0.1 mg/ml MSP142
Experimental: MSP142 (0.1 mg/ml), 10 μM suramin analogue and 2 μM suramin were combined in a 384-well black polypropylene low binding plate (total reaction volume 100 μL). Fluorescence was read at λex 320 nm/λem 405 nm on a BMG Polarstar fluorimeter. Readings were taken before, and 1 hour after, addition of suramin.
Target sequence in this assay (Q8I0U8 1327-1699): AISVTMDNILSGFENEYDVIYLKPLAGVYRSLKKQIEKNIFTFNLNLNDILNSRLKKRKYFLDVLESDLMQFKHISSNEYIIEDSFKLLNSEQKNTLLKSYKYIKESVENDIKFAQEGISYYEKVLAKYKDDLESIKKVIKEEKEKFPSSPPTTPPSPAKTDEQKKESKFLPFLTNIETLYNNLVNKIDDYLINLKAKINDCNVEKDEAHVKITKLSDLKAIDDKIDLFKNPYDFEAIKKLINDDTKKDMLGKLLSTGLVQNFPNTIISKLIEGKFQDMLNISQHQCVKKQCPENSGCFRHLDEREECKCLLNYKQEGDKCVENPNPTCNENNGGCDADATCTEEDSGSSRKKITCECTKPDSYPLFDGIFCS

[3] = titration of fluorescent analogues in PBS buffer only; format: physicochemical; details: 0.01-200 μM
Experimental: Analogues 258, 261, 264 and 266 were titrated against (a) PBS buffer only, (b) 0.1 mg/ml bovine serum albumin in PBS or (c) 0.1 mg/ml MSP142 in PBS. Fluorescence observed was compared to naphthalenetrisulphate (non-specific reagent) and suramin.

[4] = target: T1, MSP142; assay: P. falciparum MSP1 secondary processing assay (merozoites, Western blot); format: biochemical; set-up: Merozoites were purified as described previously; endogenous in cells; host or cells: purified P. falciparum merozoites released from mature schizonts; details: 1 mM, 1 h at 37° C.
Experimental: Merozoites were purified as described previously (Blackman 1994 Methods Cell Biol. 45, 213-220) after release from mature schizonts into growth medium supplemented with 2 mM EGTA. Merozoites were harvested by centrifugation, followed by sequential passage through pre-wetted filters of 3 and 1.2 μm pore size. Merozoites were washed in Ca^2+- and Mg^2+-free PBS in the presence of protease inhibitors (leupeptin, antipain and aprotinin at 10 μg ml^−1). The merozoites were then washed and resuspended in 50 mM Tris-HCl pH 7.2, 5 mM CaCl2, 1 mM MgCl2, plus leupeptin, antipain and aprotinin at 10 μg ml^−1 (processing buffer), and divided into 18 μl aliquots. Two microlitres of either diluted compound or reaction buffer were added and the samples incubated for 1 h at 37° C. Control assays included those in which processing was prevented by immediate addition of either SDS, 1 mM PMSF or 5 mM EGTA; and those in the absence of compound or in the presence of 0.2 mM TLCK (tosyl-L-lysyl chloromethyl ketone). After 1 h the reaction was stopped, and MSP1 processing was analysed using a Western blot-based assay (Blackman 1994 Methods Cell Biol. 45, 213-220). The blots were probed with a rabbit anti-MSP133/MSP142 antibody and the bands corresponding to MSP142 and MSP133 polypeptides were visualised by enhanced chemiluminescence.
Purified merozoites were incubated in the presence or absence of suramin or NTS and polypeptides subjected to SDS-PAGE and Western blotting.
Target sequence in this assay (Q8I0U8 20-1326): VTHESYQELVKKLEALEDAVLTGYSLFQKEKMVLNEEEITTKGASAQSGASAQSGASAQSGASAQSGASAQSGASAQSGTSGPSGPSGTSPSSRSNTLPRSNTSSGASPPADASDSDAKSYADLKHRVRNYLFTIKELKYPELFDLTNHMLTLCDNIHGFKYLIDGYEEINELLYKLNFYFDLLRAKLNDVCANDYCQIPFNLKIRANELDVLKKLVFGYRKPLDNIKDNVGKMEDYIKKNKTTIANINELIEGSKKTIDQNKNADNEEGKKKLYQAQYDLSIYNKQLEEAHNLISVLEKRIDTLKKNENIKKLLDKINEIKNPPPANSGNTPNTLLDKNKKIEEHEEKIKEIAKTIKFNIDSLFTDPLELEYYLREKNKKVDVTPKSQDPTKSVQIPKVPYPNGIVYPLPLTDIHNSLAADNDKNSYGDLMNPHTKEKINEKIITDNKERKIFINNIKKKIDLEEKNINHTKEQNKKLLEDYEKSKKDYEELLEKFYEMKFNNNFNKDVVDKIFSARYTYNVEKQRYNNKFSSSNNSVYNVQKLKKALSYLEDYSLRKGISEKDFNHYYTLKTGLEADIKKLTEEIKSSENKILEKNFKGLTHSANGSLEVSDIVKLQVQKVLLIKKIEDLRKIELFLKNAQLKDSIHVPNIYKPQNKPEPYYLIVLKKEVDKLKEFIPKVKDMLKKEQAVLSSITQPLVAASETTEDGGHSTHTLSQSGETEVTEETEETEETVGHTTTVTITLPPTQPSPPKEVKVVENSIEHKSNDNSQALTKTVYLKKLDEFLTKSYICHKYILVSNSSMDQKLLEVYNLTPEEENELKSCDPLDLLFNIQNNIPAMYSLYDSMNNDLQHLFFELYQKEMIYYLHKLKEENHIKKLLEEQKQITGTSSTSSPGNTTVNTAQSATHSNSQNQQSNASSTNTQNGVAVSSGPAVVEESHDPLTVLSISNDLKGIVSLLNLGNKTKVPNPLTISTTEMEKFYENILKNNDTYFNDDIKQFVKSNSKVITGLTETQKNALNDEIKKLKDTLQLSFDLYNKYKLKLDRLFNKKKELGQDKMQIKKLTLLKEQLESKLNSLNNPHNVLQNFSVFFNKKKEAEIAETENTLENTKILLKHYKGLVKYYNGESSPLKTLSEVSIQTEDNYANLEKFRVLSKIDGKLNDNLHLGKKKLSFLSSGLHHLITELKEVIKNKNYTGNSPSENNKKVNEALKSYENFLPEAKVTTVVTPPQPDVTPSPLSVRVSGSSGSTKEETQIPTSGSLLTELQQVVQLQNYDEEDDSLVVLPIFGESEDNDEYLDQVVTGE
Target sequence in this assay (Q8I0U8 1327-1699): as the sequence (Q8I0U8 1327-1699) above

Structure (SMILES) | inhibition of invasion at the highest concentration tested [1] | effect on the fluorescent signal of suramin / own fluorescence [2] | fluorescence in buffer alone [3] | inhibition of MSP142 secondary processing [4]
O=S(=O)(O)c1ccc2c(S(=O)(=O)O)cc(S(=O)(=O)O)cc2c1 [NTS, Naphthalene-1,3,6-trisulphonic acid] | did not inhibit invasion | most fluorescent compound tested | fluorescent in buffer alone | –
O=S(=O)(F)Cc1ccccc1 [PMSF] | – | – | – | absence of MSP133
